Results taken from patent US20260182575A1, “MOLECULES HAVING PESTICIDAL UTILITY AND INTERMEDIATES AND PROCESSES RELATED THERETO” (CORTEVA AGRISCIENCE LLC, priority 2022, published 2026).

Assays:
Assay type in all cases: in vivo
[1] = system: Green Peach Aphid (Myzus persicae, MYZUPE, GPA); assay: Bioassay 1: green peach aphid, cabbage seedling foliar spray; conditions: 3 days
Experimental: Bioassay 1: Green Peach Aphid (Myzus persicae, MYZUPE, “GPA”).
Stock solutions of F1 and various active ingredients were prepared initially at a concentration of 4 milligrams per milliliter (mg/mL) for F1 and 0.1 mg/mL for the active ingredients, respectively, using a 1:1 mixture of acetone:methanol as a diluent. Stock solutions were prepared with F1 as well as for each of the active ingredients individually. Test solutions were prepared from the stock solutions. Test solutions were prepared containing F1, the individual active ingredients, and mixtures of F1 with each of the active ingredients. The test solutions for F1 and the individual active ingredients were prepared by adding 750 microliters (μL) of stock solution to a 25 mL glass vial, then adding 750 μL of 1:1 acetone:methanol solvent, followed by the addition of 13.5 mL water with 0.025% Tween® 20 to create a 0.0005% (weight/volume (w/v)) solution. The test solutions containing mixtures of F1, and the individual active ingredients were prepared by adding 750 μL of the active ingredient stock solution to a 25 mL glass vial, followed by 750 μL of the F1 stock solution, then by the addition of 13.5 mL water with 0.025% Tween® 20 to create a test solution containing 0.0005% (w/v) F1 and 0.0005% (w/v) of the active ingredient. Each test solution was serially diluted to create desired doses of test solutions (0.0005% (w/v), 0.000125% (w/v), 0.00003125% (w/v), 0.0000078% (w/v), 0.00000195% (w/v), and 0.0000005% (w/v)). In test solutions containing mixtures of F1 and the active ingredients, the active ingredients were diluted as described above, but the concentration of F1 was held constant (0.04% (w/v)).
The test solutions were tested against GPA using the following procedure: cabbage seedlings, grown in 3-inch pots with 2-3 small (3-5 centimeter (cm)) true leaves, were used as test substrate. The seedlings were infested with 20-50 GPA (wingless adult and nymph stages) one day prior to chemical application. Four pots with individual seedlings were used for each treatment. A hand-held aspirator-type sprayer was used for spraying a solution to both sides of […] leaves until runoff. Reference plants (solvent check) were sprayed with the diluent only (0.025% Tween® 20 and 10% acetone:methanol (1:1) in water). Treated plants were held in a holding room for three days at approximately 25° C. and ambient relative humidity (RH about 20% to about 45%) prior to grading. Evaluation was conducted by counting the number of live aphids per plant under a microscope three days after treatment. Percent control was measured using Abbott's correction formula (W. S. Abbott, J. Econ. Entomol. 18 (1925), pp. 265-267) as follows:
where X=No. of live aphids on solvent check plants and Y=No. of live aphids on treated plants. In Table B1 the “Expected % Control” was calculated using the method described in Colby S. R., Weeds, 1967, 15, 20-22. Bioassay 2: Sweet Potato Whitefly (Bemisia tabaci, BEMITA, “SPW”).

[2] = system: Sweet Potato Whitefly (Bemisia tabaci, BEMITA, SPW); assay: Bioassay 2: sweet potato whitefly, cotton seedling foliar spray; conditions: AI alone
Experimental: Stock solutions were prepared with F1 as well as for each of the active ingredients individually. Test solutions were prepared from the stock solutions. Test solutions were prepared containing F1, the individual active ingredients, and mixtures of F1 with each of the active ingredients. The test solutions for F1 and the individual active ingredients were prepared by adding 500 μL of stock solution to a 25 mL glass vial, then adding 500 μL of acetone, followed by the addition of 9 mL water with 0.025% Tween® 20 to create a 0.001% (w/v) solution. The test solutions containing mixtures of F1, and the individual active ingredients were prepared by adding 500 μL of the active ingredient stock solution to a 25 mL glass vial, followed by 500 μL of the F1 stock solution, then by the addition of 9 mL water with 0.025% Tween® 20 to create a test solution containing 0.001% (w/v) F1 and 0.001% (w/v) of the active ingredient. Each test solution was serially diluted to create desired doses of test solutions (0.001% (w/v), 0.0001% (w/v), 0.00001% (w/v), 0.000001% (w/v), 0.0000001% (w/v), and 0.00000001% (w/v)).
The test solutions were tested against SPW using the following procedure: Cotton seedlings grown in 3-inch pots, pruned so that only one true leaf remained, were used as test substrate. Adult B. tabaci were allowed to colonize the cotton plants and lay eggs for 24 hours after which all adults were removed from the plants using compressed air. Plants were monitored for egg development, and when crawler emergence was underway (>25% emergence based on visual examination using a microscope), the plants were sprayed using the test solutions and methods described above for green peach aphids (GPA). Treated plants were held in a holding room at approximately 25° C. and ambient relative humidity (RH) prior to grading. Evaluation was conducted by counting the number of developed 2-3 instar nymphs per plant under a microscope 7-9 days after treatment. Percent control was measured using Abbott's correction formula (W. S. Abbott, J. Econ. Entomol. 18 (1925), pp. 265-267) as follows:
where X=No. of live nymphs on solvent check plants and Y=No. of live nymphs on treated plants. In Table B2 the “Expected % Control” was calculated using the method described in Colby S. R., Weeds, 1967, 15, 20-22. Bioassay 3: Western Flower Thrips (Frankliniella occidentalis, FRANOC, “WFT”).

[3] = system: Corn Earworm (Helicoverpa zea, HELIZE, CEW); assay: Bioassay 4: corn earworm, artificial diet, 128-cell tray; conditions: AI alone
Experimental: (§1) Stock solutions were prepared with F1 as well as for each of the active ingredients individually. Test solutions were prepared from the stock solutions. Test solutions were prepared containing F1, the individual active ingredients, and mixtures of F1 with each of the active ingredients. The test solution for F1 was prepared by adding 500 μL of the stock solution to a 25 mL glass vial, then adding 500 μL of a 9:1 mixture of acetone:water. The individual active ingredients were prepared by adding 500 μL of stock solution to a 25 mL glass vial, then adding 500 μL of a 9:1 mixture of acetone:water. The test solutions containing mixtures of F1, and the individual active ingredients were prepared by adding 500 μL of the active ingredient stock solution to a 25 mL glass vial, followed by 500 μL of the F1 stock solution, creating a test solution containing 0.04% (w/v) of F1 and 0.4% (w/v) of the active ingredient. Each test solution was serially diluted to create desired doses of test solutions (F1 at 0.04% (w/v), 0.004% (w/v), 0.0004% (w/v), 0.00004% (w/v), 0.000004% (w/v), and 0.0000004% (w/v) and active ingredients at 0.4% (w/v), 0.04% (w/v), 0.004% (w/v), 0.0004% (w/v), 0.00004% (w/v), and 0.000004% (w/v)).
(§2) The test solutions were tested against CEW, FAW, and SBL using the following procedure: an artificial lepidopteran diet (Multispecies Lepidopteran Diet, Southland Products) was distributed in 128-cell bioassay trays (Frontier Agricultural Sciences™). 50 μL of test solution was pipetted into a cell in the bioassay tray. (The test solution doses of 0.04% (w/v), 0.004% (w/v), 0.0004% (w/v), 0.00004% (w/v), 0.000004% (w/v), and 0.0000004% (w/v) translated to concentrations of 5, 0.5, 0.05, 0.005, 0.0005, and 0.00005 μg/cm^2 on the diet, respectively.) A reference treatment (solvent check) was treated with the diluent only. Each treatment was replicated 8 times for each species. A 2nd instar CEW, FAW, or SBL larva was placed on top of the diet in each cell and was contained with a clear perforated adhesive lid. Test trays were held at approximately 26° C. and ambient relative humidity (RH) prior to grading.
(§3) After 5 days, the number of live larvae were recorded from each cell and percent control was measured using Abbott's correction formula (W. S. Abbott, J. Econ. Entomol. 18 (1925), pp. 265-267) as follows:
(§4) where X=No. of live larvae on solvent check and Y=No. of live larvae on treated diet. In Table B4 the “Expected % Control” was calculated using the method described in Colby S. R., Weeds, 1967, 15, 20-22. Bioassay 5: Neotropical Brown Stink Bug (Euschistus heros, EUSCHE, “BSB”).

[4] = system: Fall Armyworm (Spodoptera frugiperda, LAPHFR, FAW); assay: Bioassay 4: fall armyworm, artificial diet, 128-cell tray; conditions: AI alone
Experimental: as §1, §2, §3, §4

[5] = system: Soybean Looper (Chrysodeixis includens, PSEPIN, SBL); assay: Bioassay 4: soybean looper, artificial diet, 128-cell tray; conditions: AI alone
Experimental: as §1, §2, §3, §4

[6] = system: Western Flower Thrips (Frankliniella occidentalis, FRANOC, WFT); assay: Bioassay 3: western flower thrips, cotton leaf disc dip; conditions: 3 days
Experimental: Stock solutions of F1 and various active ingredients were prepared initially at a concentration of 0.1 mg/mL using acetone as a diluent. Stock solutions were prepared with F1 as well as for each of the active ingredients individually. Test solutions were prepared from the stock solutions. Test solutions were prepared containing F1, the individual active ingredients, and mixtures of F1 with each of the active ingredients. The test solutions for F1 and the individual active ingredients were prepared by adding 500 μL of stock solution to a 25 mL glass vial, then adding 500 μL of acetone, followed by the addition of 9 mL water with 0.025% Tween® 20 to create a 0.0005% (w/v) solution. The test solutions containing mixtures of F1, and the individual active ingredients were prepared by adding 500 μL of the active ingredient stock solution to a 25 mL glass vial, followed by 500 μL of the F1 stock solution, then by the addition of 9 mL water with 0.025% Tween® 20 to create a test solution containing 0.0005% (w/v) F1 and 0.0005% (w/v) of the active ingredient. Each test solution was serially diluted to create desired doses of test solutions (0.0005% (w/v), 0.000125% (w/v), 0.00003125% (w/v), 0.0000078% (w/v), and 0.00000195% (w/v)).
The test solutions were tested against WFT using the following procedure: Leaf discs (2.7 cm in diameter) were cut from the true leaves of cotton plants. Leaf discs were dipped into the test solutions and shaken to ensure complete coverage of the leaf disc and then placed in Millipore® PetriSlides containing a filter paper disc. Treated leaf discs were air dried for approximately 1 hour. Each leaf disc was infested with 5 WFT (9-10-day old nymphs) by placement on each leaf disc, and the PetriSlides were capped to prevent escape. Each treatment was replicated three times and the test treatments were held at approximately 26° C. and ambient relative humidity (RH) prior to grading. Reference discs (solvent check) were treated with the diluent only. Evaluation was conducted by counting the number of live WFT under magnification 3 days after treatment. Percent control was measured using Abbott's correction formula (W. S. Abbott, J. Econ. Entomol. 18 (1925), pp. 265-267) as follows:
where X=No. of live nymphs on solvent check leaf discs and Y=No. of live nymphs on treated leaf discs. In Table B3 the “Expected % Control” was calculated using the method described in Colby S. R., Weeds, 1967, 15, 20-22. Bioassay 4: Corn Earworm (Helicoverpa zea, HELIZE, “CEW”), Fall Armyworm (Spodoptera frugiperda, LAPHFR, “FAW”), and Soybean Looper (Chrysodeixis includens, PSEPIN, “SBL”).

Compound | Average % Control AI ([1]; AI alone at the rate of Wt Ratio F1:AI 1:40000 (F1 0.04)) | Average % Control AI ([2]; Wt % AI 0.0001, 7-9 days) | Average % Control AI ([3]; 0.000004 wt %) | Average % Control AI ([3]; 0.00004 wt %) | Average % Control AI ([4]; 0.000004 wt %) | Average % Control AI ([5]; 0.000004 wt %) | Average % Control AI ([6]; AI alone at 1:1 rate to F1 0.195 (10^-6 Wt %)) | Average % Control AI ([6]; AI alone at 1:1 rate to F1 3.125 (10^-6 Wt %)) | Average % Control AI ([4]; 0.00004 wt %) | Average % Control AI ([5]; 0.00004 wt %) | Average % Control AI ([1]; AI alone at the rate of Wt Ratio F1:AI 1:10256 (F1 0.04)) | Average % Control AI ([2]; Wt % AI 0.000001, 7-9 days) | Average % Control AI ([2]; Wt % AI 0.00001, 7-9 days)
CNC(=O)c1cc(Cl)cc(C)c1NC(=O)c1cc(Br)nn1-c1ncccc1Cl [Chlorantraniliprole] | 8.1% | 28.0% | 0.0% | 0.0% | 62.5% | 37.5% | – | – | – | – | – | – | –
N#Cc1nn(-c2c(Cl)cc(C(F)(F)F)cc2Cl)c(N)c1[S+]([O-])C(F)(F)F (centres unmarked) [Fipronil] | – | 8.9% | 0.0% | 0.0% | 0.0% | 0.0% | 9.5% | 42.9% | 0.0% | 0.0% | – | – | –
O=[N+]([O-])/N=C1\NCCN1Cc1ccc(Cl)nc1 [Imidacloprid] | – | – | 0.0% | 0.0% | 0.0% | 12.5% | – | – | – | – | 40.5% | – | –
O=c1c(-c2cccc(C(F)(F)F)c2)c([O-])[n+](Cc2cncnc2)c2ccccn12 [Triflumezopyrim] | – | – | 0.0% | 0.0% | 0.0% | 12.5% | – | – | – | – | – | 10.1% | 31.4%
